Values after ≈ are worked out from the molar mass of the structure shown.
Columns and labels:
[1] = target: human carbonic anhydrase-2 (Homo sapiens, UniProt P00918); assay: Carbonic anhydrase assay, carbonic anhydrase-2; format: biochemical; conditions: read-out: Inhibition of Carbonic anhydrase-2 IC50
Experimental: (§1) 6. Carbonic Anhydrase Assay
(§2) The principle of the assay is based on the hydrolysis of 4-nitrophenyl acetate by carbonic anhydrases (Pocker & Stone, Biochemistry, 1967, 6, 668), with subsequent photometric determination of the dye product 4-nitrophenolate at 400 nm by means of a 96-channel spectral photometer.
(§3) 2 μL of the test compounds, dissolved in DMSO (100-fold final concentration), in a concentration range of 0.03-10 μmol/L (final), was pipetted as quadruplicates into the wells of a 96-hole microtiter plate. Wells that contained the solvent without test compounds were used as reference values (1. Wells without carbonic anhydrase for correction of the non-enzymatic hydrolysis of the substrate, and 2. Wells with carbonic anhydrase for determining the activity of the non-inhibited enzyme).
(§4) 188 μL of assay buffer (10 mmol/L of Tris/HCl, pH 7.4, 80 mmol/L of NaCl), with or without 3 units/well of carbonic anhydrase-1 [=human carbonic anhydrase-1 (Sigma, #C4396)] in order to determine carbonic anhydrase-1 inhibition or 3 units/well of carbonic anhydrase-2 [=human carbonic anhydrase-2 (Sigma, #C6165)] for measuring carbonic anhydrase-2 inhibition, was pipetted into the wells of the microtiter plate.

[2] = Equilibrium shake flask solubility assay, thermodynamic solubility in water pH 6.5; format: physicochemical; conditions: phosphate buffer pH 6.5, 24 h, room temperature; for solubility at 24 h: phosphate buffer, pH 6.5, aqueous buffer, thermodynamic from solid
Experimental: 4. Equilibrium Shake Flask Solubility Assay:
4a) Thermodynamic Solubility in Water
The thermodynamic solubility of compounds in water was determined by an equilibrium shake flask method (see for example: E. H. Kerns, L. Di: Drug-like Properties: Concepts, Structure Design and Methods, 276-286, Burlington, Mass., Academic Press, 2008). A saturated solution of the drug was prepared and the solution was mixed for 24 h to ensure that equilibrium was reached. The solution was centrifuged to remove the insoluble fraction and the concentration of the compound in solution was determined using a standard calibration curve. To prepare the sample, 2 mg solid compound was weighed in a 4 mL glass vial. 1 mL phosphate buffer pH 6.5 was added. The suspension was stirred for 24 hrs at room temperature. The solution was centrifuged afterwards. To prepare the sample for the standard calibration, 2 mg solid sample was dissolved in 30 mL acetonitrile. After sonification the solution was diluted with water to 50 mL. Sample and standards were quantified by HPLC with UV-detection. For each sample two injection volumes (5 and 50 μl) in triplicates were made. Three injection volumes (5 μl, 10 μl and 20 μl) were made for the standard.
The areas of sample- and standard injections as well as the calculation of the solubility value (in mg/l) were determined by using HPLC software (Waters Empower 2 FR).

[3] = target: T1, human carbonic anhydrase-1 (Homo sapiens, UniProt P00915); assay: Carbonic anhydrase assay, carbonic anhydrase-1; format: biochemical; conditions: read-out: Inhibition of Carbonic anhydrase-1 IC50
T1 construct: purchased Sigma C4396
Experimental: as §1, §2, §3, §4

[4] = tested on: Caco-2 cell monolayers; assay: Caco-2 permeation assay; format: in vitro ADME, human; conditions: for Papp A-B (Mari) / Papp B-A (Mari): Caco-2, 2 μM test compound; for Papp A-B (Mari): apical to basolateral; for Papp B-A (Mari): basolateral to apical
Experimental: 5. Caco-2 Permeation Assay:
Caco-2 cells (purchased from DSMZ Braunschweig, Germany) were seeded at a density of 4.5×10^4 cells per well on 24 well insert plates, 0.4 μm pore size, and grown for 15 days in DMEM medium supplemented with 10% fetal bovine serum, 1% GlutaMAX (100×, GIBCO), 100 U/mL penicillin, 100 μg/mL streptomycin (GIBCO) and 1% non essential amino acids (100 ×). Cells were maintained at 37° C. in a humified 5% CO2 atmosphere. Medium was changed every 2-3 day. Before running the permeation assay, the culture medium was replaced by a FCS—free hepes-carbonate transport buffer (pH 7.2). For assessment of monolayer integrity the transepithelial electrical resistance (TEER) was measured. Test compounds were predissolved in DMSO and added either to the apical or basolateral compartment in final concentration of 2 μM in transport buffer. Before and after 2 h incubation at 37° C. samples were taken from both compartments. Analysis of compound content was done after precipitation with methanol by LC/MS/MS analysis. Permeability (Papp) was calculated in the apical to basolateral (A→B) and basolateral to apical (B→A) directions. The apparent permeability was calculated using following equation: Papp=(Vr/Po)(1/S)(P2/t)
Where Vr is the volume of medium in the receiver chamber, Po is the measured peak area or height of the test drug in the donor chamber at t=o, S the surface area of the monolayer, P2 is the measured peak area of the test drug in the acceptor chamber after 2 h of incubation, and t is the incubation time. The efflux ratio basolateral (B) to apical (A) was calculated by dividing the Papp B-A by the Papp A-B. In addition the compound recovery was calculated. The following reference compounds were used for the classification of the permeability class: Antipyrine, Pyrazosin, Verapamil, Fluvastatin, Cimetidine, Ranitidine, Atenolol, Sulfasalazine.

T1 sequence (P00915 whole entry): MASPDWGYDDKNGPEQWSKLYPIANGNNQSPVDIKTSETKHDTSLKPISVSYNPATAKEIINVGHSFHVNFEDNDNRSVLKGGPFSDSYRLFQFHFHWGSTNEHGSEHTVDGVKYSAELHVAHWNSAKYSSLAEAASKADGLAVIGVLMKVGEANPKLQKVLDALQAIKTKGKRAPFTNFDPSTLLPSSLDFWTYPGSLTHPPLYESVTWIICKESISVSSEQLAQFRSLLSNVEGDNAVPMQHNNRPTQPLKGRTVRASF

Compound | IC50 [1] [µM] | solubility at 24 h [2] [µg/mL] | IC50 [3] [µM] | Papp A-B (Mari) [4] [×10⁻⁶ cm/s] | Papp B-A (Mari) [4] [×10⁻⁶ cm/s] | Solubility in water at pH 6.5 [2] [mg/l] | Efflux ratio ([4]; Caco-2, 2 μM, Papp B-A / Papp A-B)
COc1cc(F)ccc1-c1cc(Nc2cc(CS(C)(=N)=O)ccn2)ncc1F (racemic) [Example 1, (rac)-5-Fluoro-4-(4-fluoro-2-methoxyphenyl)-N-{4-[(S-methylsulfonimidoyl)methyl]pyridin-2-yl}pyridin-2-amine] | > 10 | 13 (≈ 32.1 µM) | > 10 |  |  |  | 
COc1cc(F)ccc1-c1cc(Nc2cc(CS(C)(=N)=O)ccn2)ncc1F (single isomer, unassigned; (+)) [Example 2, (+)-5-Fluoro-4-(4-fluoro-2-methoxyphenyl)-N-{4-[(S-methylsulfonimidoyl)methyl]pyridin-2-yl}pyridin-2-amine] |  | 25 (≈ 61.8 µM) |  |  |  |  | 
COc1cc(F)ccc1-c1cc(Nc2cc(CS(C)(=N)=O)ccn2)ncc1F (single isomer, unassigned; (-)) [Example 3, (−)-5-Fluoro-4-(4-fluoro-2-methoxyphenyl)-N-{4-[(S-methylsulfonimidoyl)methyl]pyridin-2-yl}pyridin-2-amine] |  |  |  | 13.3 | 19.7 | 27 | 
COc1cc(F)ccc1-c1cc(Nc2cc(CS(C)(=N)=O)cc(C(F)(F)F)n2)ncc1F (single isomer, unassigned; (-)) [Example 23, (−)-5-Fluoro-4-(4-fluoro-2-methoxyphenyl)-N-{4-[(S-methylsulfonimidoyl)methyl]-6-(trifluoromethyl)pyridin-2-yl}pyridin-2-amine] |  |  |  | 4.7 | 6.2 |  | 1.3

Source: US9650340B2, “5-fluoro-N-(pyridin-2-yl)pyridin-2-amine derivatives containing a sulfoximine group” (BAYER PHARMA AKTIENGESELLSCHAFT, priority 2012, dated 2017)
